Experimental data as given in US5326868A, “Certain aryl fused pyrrolopyrimidines; a new class of GABA brain receptor ligands” (Neurogen Corporation, priority 1993, dated 1994).
pIC50: −log10 of the molar value.

Legend:
GABA receptor = conditions: Tallman et al., 1978; cited from earlier work
GABAa receptor = GABAa receptor activity: displacement of 3H-RO15-1788 (3H-Flumazenil) binding in rat cortical tissue homogenate; conditions: 3H-RO15-1788 0.5 nM, 30 min at 4° C., pH 7.4, rat cortical tissue
Protocol: The pharmaceutical utility of compounds of this invention are indicated by the following assay for GABAa receptor activity.
Assays are carried out as described in Thomas and Tallman (J. Bio. Chem. 156: 9838-9842, J. Neurosci. 3: 433-440, 1983). Rat cortical tissue is dissected and homogenized in 25 volumes (w/v) of 0.05M Tris HCl buffer (pH 7.4 at 4° C.). The tissue homogenate is centrifuged in the cold (4°) at 20,000×g for 20'. The supernatant is decanted and the pellet is rehomogenized in the same volume of buffer and again centrifuged at 20,000×g. The supernatant is decanted and the pellet is frozen at -20° C. overnight. The pellet is then thawed and rehomogenized in 25 volume (original wt/vol) of buffer and the procedure is carried out twice. The pellet is finally resuspended in 50 volumes (w/vol of 0.05M Tris HCl buffer (pH 7.4 at […]).
Incubations contain […] of radioligand 0.5 nM (^3 H-RO15-1788 [^3 H-Flumazenil] specific activity 80 Ci/mmol), drug or blocker and buffer to a total volume of […]. Incubations are carried for 30 min at 4° C. then are rapidly filtered through GFB filters to separate free and bound ligand. Filters are washed twice with fresh 0.05M Tris HCl buffer (pH 7.4° at 4° C.) and counted in a liquid scintillation counter. […] diazepam is added to some tubes to determine nonspecific binding. Data are collected in triplicate determinations, averaged and % inhibition of total specific binding is calculated. Total Specific Binding=Total - Nonspecific. In some cases, the amounts of unlabeled drugs is varied and total displacement curves of binding are carried out. Data are converted to a form for the calculation of IC50 and Hill Coefficient (nH).

CN1CCc2cc3c(cc2[C@H]1[C@@H]1OC(=O)c2c1ccc1c2OCO1)OCO3 [(+) bicuculline]
blocking of enhancement of benzodiazepine binding by GABA agonists (GABA receptor): blocked

CN1CCc2cc3c(cc2[C@@H]1[C@H]1OC(=O)c2c1ccc1c2OCO1)OCO3 [(-) bicuculline]
blocking of enhancement of benzodiazepine binding by GABA agonists (GABA receptor): much less active

COc1ccc(-c2ncc3[nH]c4ccccc4c3n2)c(F)c1 [Compound 1, 2-(2-Fluoro-4-methoxyphenyl)-5H-indolo[3,2-d]pyrimidine]
pIC50 (GABAa receptor): 8.60

Oc1nc(-c2ccccc2)nc2c1[nH]c1ccccc12 [Compound 2, 4-Hydroxy-2-phenyl-5H-indolo[3,2-d]pyrimidine]
pIC50 (GABAa receptor): 7.00

c1ccc(-c2ncc3[nH]c4ccccc4c3n2)cc1 [Compound 4, 2-Phenyl-5H-indolo[3,2-d]pyrimidine]
pIC50 (GABAa receptor): 7.70
